Source: PMC3388080 (PLoS ONE, 2012)
Like-named read-outs stand apart in the source and are kept apart here.

Experiments:
rHCRTR2 = target: T1, rHCRTR2 (Rattus norvegicus, UniProt P56719); test: Inhibition of [^3H]almorexant binding to HEK293-rHCRTR2 membranes
T1 construct: expressed in transfected cells; host or cells: HEK293 (transient transfection, pCI-Neo vector), membrane preparation
Text: (§1) The rat cDNAs encoding HCRTR1 (Accession No. P56718) and HCRTR2 (Accession No. P56719) were subcloned into pCI-Neo expression vectors (Promega, Madison, WI) and used to transfect HEK293 cells (acquired commercially from ATCC-LGC, Molsheim, France) as previously described.

HCRTR1 = target: T2, HCRTR1 (Rattus norvegicus, UniProt P56718); parameters: method as in PMID 19363060; conditions: subcutaneous 30 mg/kg; tenia tecta; cited from earlier work
T2 construct: from tissue; host or cells: coronal brain sections of male Sprague-Dawley rats (locus coeruleus)
T2 sequence (P56718 1-416): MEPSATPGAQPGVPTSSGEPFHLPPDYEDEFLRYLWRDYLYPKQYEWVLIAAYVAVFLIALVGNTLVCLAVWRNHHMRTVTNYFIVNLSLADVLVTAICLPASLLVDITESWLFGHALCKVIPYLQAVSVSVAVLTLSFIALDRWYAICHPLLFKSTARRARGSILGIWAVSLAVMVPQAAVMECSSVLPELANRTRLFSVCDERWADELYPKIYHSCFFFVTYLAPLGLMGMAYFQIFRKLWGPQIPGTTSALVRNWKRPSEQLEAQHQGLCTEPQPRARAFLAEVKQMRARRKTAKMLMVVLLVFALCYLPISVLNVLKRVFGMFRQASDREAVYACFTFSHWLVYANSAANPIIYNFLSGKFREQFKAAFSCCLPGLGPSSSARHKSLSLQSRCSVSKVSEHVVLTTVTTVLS

[1] = parameters: method as in PMID 19363060; conditions: 30 mg/kg, cited from earlier work
[2] = Stability in human plasma
Experimental: (§2) Pharmacokinetic analyses were performed at F. Hoffmann-La Roche as described in supporting Materials and Methods S1.

in vitro [3] = conditions: human, plasma
Experimental: as §2

rHCRTR1 [4] = target: T3, rHCRTR1 (Rattus norvegicus, UniProt P56718); parameters: method as in PMID 14691055; conditions: cited from earlier work
T3 construct: expressed in transfected cells; host or cells: HEK293 (transient transfection, pCI-Neo vector), membrane preparation
T3 sequence (P56718 1-416): T2 sequence (P56718 1-416)

in vivo = conditions: rat, in vivo
Experimental: as §2
(§3) Cmax, maximum concentration; Tmax, time at which maximum concentration was observed; AUC, area under the plasma concentration vs. time curve; CL, clearance; Vss, volume of distribution at steady state; T1/2, terminal half-life; F, bioavailability; Fu, Fraction unbound. Plasma values are mean, n=2.

in vitro [5] = conditions: rat, plasma
Experimental: as §2, §3

Stability in rat plasma = test: Stability in rat plasma
Experimental: as §2

rHCRTR1 [6] = target: T3, rHCRTR1; test: Inhibition of [^3H]almorexant binding to HEK293-rHCRTR1 membranes; conditions: read-out: Ki
Text: as §1

T1 sequence (P56719 whole entry): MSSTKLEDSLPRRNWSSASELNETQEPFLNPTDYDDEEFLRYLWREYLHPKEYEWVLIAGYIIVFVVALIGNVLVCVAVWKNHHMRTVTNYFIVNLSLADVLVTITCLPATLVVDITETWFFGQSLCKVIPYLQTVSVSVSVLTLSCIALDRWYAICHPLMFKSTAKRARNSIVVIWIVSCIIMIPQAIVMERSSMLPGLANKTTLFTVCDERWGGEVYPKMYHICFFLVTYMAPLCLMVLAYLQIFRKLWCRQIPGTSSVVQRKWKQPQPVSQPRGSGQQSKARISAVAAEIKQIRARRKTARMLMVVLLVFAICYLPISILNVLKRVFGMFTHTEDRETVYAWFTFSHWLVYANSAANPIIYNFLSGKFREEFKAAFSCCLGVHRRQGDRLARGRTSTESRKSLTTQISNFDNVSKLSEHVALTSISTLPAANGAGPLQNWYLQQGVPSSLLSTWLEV

Compound: Cc1cc(NC(=O)Nc2ccc(N(C)C)cc2)c2cc(F)cc(F)c2n1 [SB-408124, 1-(6,8-difluoro-2-methyl-quinolin-4-yl)-3-(4-dimethylamino-phenyl)-urea]
- Ki (rHCRTR2): 5370 ± 2200 nM
- HCRTR1 occupancy (HCRTR1): 90%
- brain-to-plasma ratio ([1]; calculated from Cmax values): 0.012
- Cmax ([1]; read-out: plasma Cmax): 84.3 µM
- stability in plasma ([2]; 1 h): 94%
- stability in plasma ([2]; 4 h): 88%
- fraction unbound (in vitro [3]): 0.003
- Ki (rHCRTR1 [4]): 26.9 nM
- AUC/Dose (in vivo; Wistar, iv): 7996.40 ng/h/mL
- Tmax (in vivo; Wistar, iv): 0 h
- Vd (in vivo; Wistar, iv): 0.2 L/kg
- clearance (in vivo; Wistar, iv): 2.1 mL/min/kg
- half-life (in vivo; Wistar, iv): 1.12 h
- Cmax/Dose (in vivo; Wistar, iv, 12.1 mg/kg): 4738.30 ng/mL
- AUC/Dose (in vivo; Wistar, po): 3455.70 ng/h/mL
- Tmax (in vivo; Wistar, po): 2.67 h
- bioavailability (in vivo; Wistar, po): 43.2%
- half-life (in vivo; Wistar, po): 1.95 h
- Cmax/Dose (in vivo; Wistar, po, 18.16 mg/kg): 704.8 ng/mL
- Vss (in words) (in vivo): low
- systemic plasma clearance (in words) (in vivo): low
- oral bioavailability (in words) (in vivo; po): medium
- fraction unbound (in vitro [5]): < 0.001
- stability in plasma (Stability in rat plasma; 1 h): 101%
- stability in plasma (Stability in rat plasma; 4 h): 107%
- Ki (rHCRTR1 [6]): 45.7 ± 4.1 nM
